{"source": "patent US20090098096A1", "about": "“AGENT FOR CORRECTING STRESS-INDUCING NEURO-MEDIATOR, NEURO-ENDOCRINE AND METABOLIC DISTURBANCES AND METHOD FOR PREVENTING AND TREATING CONCOMITANT PATHOLOGICAL CONDITIONS” (priority 2005, published 2009)", "key": {"[1]": {"system": "lipids of various biological membranes (synaptosome, mitochondrial, erythrocyte and other)", "experiment": "peroxidation of lipids of biological membranes", "type": "biochemical", "conditions": "by modulation of the activity of antioxidant enzymes", "source_text": "The direct effect of the peptide on different cell membrane types was shown which may provide an additional normalizing cell functions effect. Particularly FDSIP may provide a stabilizing effect to the mitochondrial cell apparatus that also is capable of reducing cell damage by normalizing the cell respiration processes, which has been shown by us in experiments."}, "[2]": {"system": "antioxidant systems of the liver, the brain and the blood", "conditions": "under normal and under stress conditions; cited from earlier work"}, "[3]": {"system": "mitochondrial respiratory chain", "experiment": "mitochondrial respiratory chain and oxidative phosphorylation on rat brain preparations", "type": "biochemical", "source_text": "DSIP and its related peptides play a unique role in the maintenance of the structural-metabolic homeostasis not only on the level of different organs and tissues but also on the sub-cellular level of the organism. […] Such a decrease of rigidity of biological membranes enables the normalization of membrane functions, that have been disturbed by manifestations of the metabolic syndrome, such as hypertonic disease, hyperinsulinemia, misbalance of the endocrinal system, aging, etc."}, "[4]": {"system": "plasma membranes of human blood cells (erythrocytes and thrombocytes) and synaptosomal membranes (mice brain)", "conditions": "on the surface and internal non-polar region; cited from earlier work"}, "[5]": {"system": "GABAA-receptor complex", "experiment": "pharmacological profiling on convulsive and comatose models", "set-up": "species or system mice", "conditions": "mouse, in vivo", "source_text": "Particularly, the evaluation of the GABA-effecting component in the mechanism of action of the peptidic composition “Deltaran” based on FDSIP has been performed using the “pharmacological profiling” method in animals (mice). […] Also evidence has been found for a modulation of the barbiturate binding site of the GABA-benzodiazepine-ionophore-receptor complex by Deltaran and DSIP and data have been obtained concerning regulatory effect on chloride ionophore. The regulatory influences are probably realized via the peptide fragment of the GABA-benzodiazepine-ionophore-receptor complex (15)."}}, "note": "Where no end group is shown, it is not given here.", "data": [{"sequence": "WAGGDASGE [DSIP, endogenous nonapeptide, delta-sleep inducing peptide]", "values": [{"measurement": "action on the peroxidation of lipids of various biological membranes", "setting": "[1]", "result": "inhibitory and preventive action"}, {"measurement": "capacity of the antioxidant systems of the liver, the brain and the blood", "setting": "[2]", "result": "credibly increases"}, {"measurement": "efficacy of the oxidative phosphorylation", "setting": "[3]", "result": "significant increase"}, {"measurement": "mobility of structural membrane domains", "setting": "[4]", "result": "increased mobility"}, {"measurement": "barbiturate binding site of the GABA-benzodiazepine-ionophore-receptor complex", "setting": "[5]", "result": "modulation"}]}]}
